Laboratory results reported in patent US8003659B2, “Macrocyclic serine protease inhibitors” (Indenix Pharmaceuticals, Inc., priority 2008, dated 2011).

Columns and labels:
[1] = tested on: HCV genotype 2a infectious virus; assay: HCV genotype 2a infectious virus assay; type: cell-based, HCV (strain JFH-1; genotype 2a); conditions: Hepatitis C virus
Description: (§1) Compounds were tested in a HCV genotype 2a infectious virus assay and the results are summarized in Table 7, wherein A represents a value smaller than 1 μM, and B represents a value between 1 μM to 10 μM, C represents a value between 10 μM to 75 μM and D represents a value greater than 75 μM.
The HCV in vitro infection core ELISA assay measures the ability of a test compound to inhibit replication of an infectious HCV (strain JFH-1; genotype 2a) in cell culture. […] We have developed this model for determining the efficacy of antiviral compounds against an infectious virus in vitro using HCV producing cells (HPC), a proprietary Huh-7-derived cell sublineage capable of propagating the JFH-1 HCV virus. The readout of the assay is quantification of HCV core protein by ELISA 5 days post infection with JFH-1 virus and treatment with a test compound.
Ninety-six-well Corning Costar plates were seeded with HPC cells at a density of 3.0×10^3 cells per well in 50 μL of Huh-7 media. Compound stock solutions were made up freshly in Huh-7 media (DMEM (containing glucose, L-glutamine and sodium pyruvate), 10% FBS, 100 IU/mL penicillin, 100 μg/mL streptomycin, 2 mM GlutaMAX, 1% MEM non-essential amino acids) as 2× stock. Seven additional 3-fold drug dilutions were prepared from the 2× stocks in Huh-7 media. At least 4 hours after HPC cells were seeded, the media in the 96-well culture plates was aspirated and 50 μL of each drug dilution and 50 μL of JFH-1 HCV was added to each well.
At 16 hrs post treatment and infection, the virus inoculum was removed by aspiration. The cultures were treated at the same final concentrations of drug diluted to 1× in Huh-7 media to a final volume of 200 μL. Cells were incubated in the presence of drug for 4 additional days at 37° C./5% CO2.
Media was removed from the plates by aspiration. Cells were fixed with 250 μL 1:1 acetone:methanol for 90 seconds, washed once in PBS and then three times with 1×KPL wash solution. The assay plates were then blocked with 150 μL/well 10% FBS-TNE (50 mM Tris-HCl (pH 7.5; Sigma), 100 mM NaCl, 1 mM EDTA with 10% FBS) for 1 hr at room temperature. Cells were washed three times with 1×KPL wash solution and incubated with 100 μL/well anti-hepatitis C core mAb (1 mg/mL stock diluted 1:500 in 10% FBS-TNE) for 2 hours at 37° C. Cells were washed three times with 1×KPL wash solution and incubated with 100 μL/well HRP-goat anti-mouse antibody (diluted 1:2,500 in 10% FBS-TNE) for 1 hr at 37° C.
OPD solution was prepared using 1 OPD tablet+12 mL citrate/phosphate buffer (16 mM citric acid, 27 mM Na2HPO4) plus 5 μL 30% H2O2 per plate. Cells were washed three times with 1×KPL wash solution and developed with 100 μL/well OPD solution for 30 minutes in the dark at room temperature. The reaction was stopped with 100 μL/well of 2NH2SO4, and absorbance measured at A490 nm in a Victor^3 V 1420 multilabel counter (Perkin Elmer). The EC50 values for each compound were calculated from dose response curves from the resulting best-fit equations determined by Microsoft Excel and XLfit 4.1 software. The negative control for inhibition of virus replication was untreated HPC cells infected with the JFH-1 HCV virus strain. The negative ELISA control was untreated, uninfected HPC cells. The positive ELISA control was untreated HPC cells infected the JFH-1 HCV virus strain.

[2] = tested on: genotype 1b replicon; assay: Antiviral activity in a genotype 1b replicon assay; type: cell-based, HCV; conditions: Hepatitis C virus; genotype 1b replicon assay as described in Example 32; read-out: EC50
Description: General procedure: Huh-7 cells containing HCV Con1 subgenomic replicon (GS4.1 cells) were grown in Dulbecco's Modified Eagle Medium (DMEM) supplemented with 10% fetal bovine serum (FBS), 2 mM L-glutamine, 110 mg/L sodium pyruvate, 1× non-essential amino acids, 100 U/mL penicillin-streptomycin, and 0.5 mg/mL G418 (Invitrogen). For dose-response testing, the cells were seeded in 96-well plates at 7.5×10^3 cells/well in a volume of 50 μL, and incubated at 37° C./5% CO2. Three hours after plating, 50 μL of ten 2-fold serial dilutions of compounds (highest concentration, 75 μM) were added, and cell cultures were incubated at 37° C./5% CO2 in the presence of 0.5% DMSO. Alternatively, compounds were tested at a single concentration of 15 μM. In all cases, Huh-7 cells lacking the HCV replicon served as negative control. The cells were incubated in the presence of compounds for 72 hr after which they were monitored for expression of the NS4A protein by enzyme-linked immunosorbent assay (ELISA). For this, the plates were then fixed for 1 min with acetone/methanol (1:1, v/v), washed twice with phosphate-buffered saline (PBS), 0.1% Tween 20, blocked for 1 hr at room temperature with TNE buffer containing 10% FBS and then incubated for 2 hr at 37° C. with the anti-NS4A mouse monoclonal antibody A-236 (ViroGen) diluted in the same buffer. After washing three times with PBS, 0.1% Tween 20, the cells were incubated 1 hr at 37° C. with anti-mouse immunoglobulin G-peroxidase conjugate in TNE, 10% FBS. After washing as described above, the reaction was developed with O-phenylenediamine (Zymed). The reaction was stopped after 30 min with 2 NH2SO4, and absorbance was read at 492 nm using Sunrise Tecan spectrophotometer. EC50 values were determined from the % inhibition versus concentration data using a sigmoidal non-linear regression analysis based on four parameters with Tecan Magellan software. When screening at a single concentration, the results were expressed as % inhibition at 15 μM.
as §1, with “a” for “a HCV”, “1b replicon” for “2a infectious virus”, “assay as described in Example 32” for “assay”, “6,” for “7,”

Compound: COc1ccc2c(O[C@H]3C[C@H]4C(=O)N(C)CCCC/C=C\[C@@H]5C[C@@]5(C(=O)NS(=O)(=O)C5CC5)NC(=O)N4C3)cc(-c3nc(C(C)C)cs3)nc2c1Cl [Compound 62d, (Z)-(4R,6S,15S,17S)-[17-[8-chloro-7-methoxy-2-(4-isopropylthiazol-2-yl)quinolin-4-yloxy]-13-N-methyl-2,14-dioxo-1,3,13-triazatricyclo[13.3.0.0]octadec-7-en-4-yl]carbonyl(cyclopropyl)sulfonamide]
- EC50 [1]: < 1 µM
- EC50 [2]: < 1 µM
